Reference: a melting point compilation (Tetko et al.; mined from patent text by program, amines drawn as free bases though some values may be those of a salt)

SMILES	melting point [°C]
CCCC(C)(O)C(=O)Nc1cc(Br)nc(OC)c1 (configuration not stated)	122
Cc1nc2scc(C)n2c(=O)c1CCN1CCC(=C(c2ccc(F)cc2)c2ccc(F)cc2)CC1	184
CCOP(=O)(OCC)C(Nc1ncc(-c2ccccc2)s1)P(=O)(OCC)OCC	151 to 153
CCN1c2ncccc2C(=NC#N)Nc2c(C)cc(C)nc21	230 to 233
CCCn1c(=O)c2[nH]c(/C=C/c3ccc(OC)cc3)nc2n(CCC)c1=O	281 to 284
COc1cccc2c1CC1CC(CN3CCC(c4c[nH]c5ccccc45)CC3)CN(C)C1C2 (configuration not stated)	220 to 223
O=C1c2ccccc2C(=O)N1CC1CC1c1cccc2nnsc12 (configuration not stated)	123 to 125
CC(C)(C)OC(=O)C[C@@H](NS(=O)(=O)c1ccc2c(Cl)cnc(Cl)c2c1)C(=O)OC(C)(C)C	106 to 110
COc1cccc(-c2noc(-c3ccccn3)n2)c1	90 to 94
O=C(CS(=O)(=O)C(c1ccc(Cl)cc1)c1ccc(Cl)cc1)c1ccccn1	120 to 121
CCN1CCN(Cc2ccc3c(c2)-c2[nH]nc(-c4ccsc4)c2C3)CC1	221 to 223
COCOc1ccc(-c2ccc(-c3ccc(C(=O)O)cc3)cc2-c2ccc3c(c2)C(C)(C)CCC3(C)C)cc1	249 to 251
NC(=O)COc1c(-c2ccccc2)c(=O)[nH]c2cc(Cl)ccc12	262 to 264
CCCCCC(CC(=O)Nc1cc(C(N)=O)ccc1C(C)(C)C)c1ccc(OCCCOC)cc1OC (configuration not stated)	65 to 67
CCON=C(C(C)=NOCc1ccccc1C(=COC)C(=O)OC)c1ccc(OC(C)c2ccc(Cl)cc2)cc1 (configuration not stated)	107 to 109
Oc1cccc2sncc12	133 to 134
COc1ccc(Cn2cnc3c(Cl)nc(C(F)(F)F)nc32)cc1	104 to 106
Cc1cc(C=O)c(Cl)nc1C	69 to 70
CCOc1ccc(OCC(N)=O)c(C(Nc2ccc(C(=N)N)cc2)C(=O)O)c1 (racemic)	266
CN1CCC(c2c(O)cc(O)c3c(=O)cc(Sc4ccccc4Cl)oc23)C(O)C1 (configuration not stated)	110
Cc1cc(C)c(S(=O)(=O)NCCCCOc2ccc(-n3ccnc3)cc2)c(C)c1	130 to 131
Cc1nc(-c2ccc(OCc3ccncc3)cc2)no1	132 to 133

SMILES	melting point [°C]
CCCCCCCC(=O)Nc1ccc(O)c(C(=O)O)c1	200 to 204
COc1ccc(C(=O)c2coc3ccccc23)cc1	89 to 90
O=C(CCl)c1cccn1C(c1ccccc1)c1ccccc1F (configuration not stated)	86 to 91
Cc1nn(-c2ccccn2)c2ncc(C(=O)NC3CCCCC3)c(O)c12	> 300
Cc1cc(CCCOc2c(C)cc(-c3noc(C(F)(F)F)n3)cc2C)on1	61 to 62
N#Cc1cccc(-c2nnc(-c3cccnc3)o2)c1	170 to 174
COC(=O)c1sc(C(C)C)cc1NC(=O)Nc1ccccc1	108 to 110
COc1cc2ncnc(N3CCN(C(=O)Nc4ccc(C(=O)C(F)(F)F)cc4)CC3)c2cc1OC	144 to 146
CCN1CCCC(NC2c3ccccc3Oc3ccccc32)C1 (configuration not stated)	47.5 to 48.5
CNC(=O)[C@@H]1CCC[C@@H]1Nc1nc(Nc2cc3c(cc2OC)CCN(CC(=O)N(C)C)CC3)ncc1Cl (relative stereo)	240
CC(C)(C)c1cc(C(c2ccc(C#N)cc2)N2CCCCC2)cc(C(C)(C)C)c1O (configuration not stated)	139 to 140
CS(=O)(=O)c1ccc(-c2cnn(CC3CC3)c(=O)c2-c2ccc(F)cc2)cc1	118 to 121
CC1=C(C)C(=O)N(c2ccc(Cl)c(Cl)c2)C1=O	188
O=C(O)c1ccc(-c2ccnnc2)cc1	> 330
CN(C)CCNc1ccc(NCCCCC(=O)NOCc2ccccc2)c2c1C(=O)c1ccccc1C2=O	146 to 148
CCOC(=O)C1Oc2cc(C=O)c(Cl)c(Cl)c2O1 (configuration not stated)	81 to 83
N#CN1CCN(c2nn(-c3ccccc3)c3cc(F)ccc23)CC1	172 to 174
COc1cccc2c1C(=O)C(Br)=C(Br)C2=O	190
Cc1cn(C2CC(O)(COCc3ccccc3)C(CO)O2)c(=O)n(COCc2ccccc2)c1=O (configuration not stated)	83 to 84
COc1c(-c2cc3c(s2)CCCC3O)ccc2c(=O)c(C(=O)O)cn(C3CC3)c12 (configuration not stated)	237 to 239
Cc1ccc2c(c1)N(CC(=O)c1cccs1)C(=O)C(NC(=O)Nc1cccc(C(=O)O)c1)CN2C(=O)c1cccs1 (configuration not stated)	> 290
CCCC1=C(C(=O)OCC)C(c2ccccc2Cl)c2cn(C(=O)OC)nc2N1 (configuration not stated)	141 to 143

Continued, values first:

melting point [°C]	SMILES
243 to 244	Cc1c(Cl)cc(C(C)(C)C)c(O)c1-c1nc2cc(OC(F)(F)F)ccc2[nH]1
132 to 133	Clc1ccc(-c2nc(-n3cncn3)oc2CCC2=NCCO2)cc1
249 to 253	O=C(Nc1ncc(Br)cn1)c1ccccc1SSc1ccccc1C(=O)Nc1ncc(Br)cn1
194 to 196	COC(=O)[C@@](C#N)(Cc1ccccn1)[C@H](c1ccccc1OC)c1cccc2ccccc12 (relative stereo)
120 to 123	COc1cc(OC)nc(C2OC(=O)c3c(-c4cccs4)ccnc32)n1 (configuration not stated)
214 to 217	Cc1nc2c(N)nc3ccccc3c2n1CCOCCS(C)(=O)=O
243 to 245	COc1cccc2c(NCc3ccccc3)nc(N)nc12
202 to 204	O=c1[nH]ncc2[nH]c(-c3ccc(OC(F)F)c(OC4CC4)c3)c(Cc3ccccc3F)c12
63	N#CC(CBr)c1ccccc1 (configuration not stated)
196 to 197	Cc1cccc(-c2ccc3c(c2)c2c(n3Cc3ccc(C(C)(C)C)cc3)COC(=O)C2=O)c1
119 to 122	CCN1C(=O)C(C)(C)C(=O)N(C)c2cc(CN(CCn3ccc4sccc4c3=O)Cc3cccnc3COC)ccc21
73 to 75	C#CCCCCCCCCC(=O)N[C@H]1CCCNC(=O)C1
258	COC(=O)Nc1nc2ccc(OS(=O)(=O)c3ccc(-n4ccnc4)cc3)cc2[nH]1
124 to 125	CCOCCOC(=O)C(=O)Nc1nc(-c2c(C)cc(C)cc2C)cs1
226 to 228	O=C(Nc1ccc(-c2cccc(C(=O)O)c2)cc1)OCC1c2ccccc2-c2ccccc21
300 to 305	CN1CCC(=C2c3ccccc3C=Cc3ccc(C(=O)O)cc32)CC1
279 to 283	C[C@H]1Cc2c(F)c(F)cc3c(=O)c(C(=O)O)cn1c23
126 to 128	CC(C)(C)OC(=O)N1CCC[C@@H](OC(=O)c2ccc(OC(C)(C)C)cc2)[C@H](NC(=O)c2ccc(OC(C)(C)C)cc2)C1
157 to 159	COc1ccc2c(=O)cc(CS(C)=O)oc2c1 (configuration not stated)
54 to 59	CC(=O)SCC(CC(C)C)C(=O)NCCN1CCOCC1 (configuration not stated)
244 to 246	O=C1CCCc2cc(O)c(Cl)c(Cl)c21
239 to 240	Cn1c(=O)c(-c2c(Cl)cccc2Cl)cc2cnc(N)cc21
287 to 289	CC(C)C1CCC2(C(=O)O)CCC3(C)C(CCC4C5(C)CCC(O)C(C)(C)C5CCC43C)C12 (configuration not stated)
217	Cc1nc(NC(=O)c2cnn3c(C(F)F)cc(-c4ccc(C(F)(F)F)cc4)nc23)sc1S(=O)(=O)NC(CO)CO
214 to 216	N#Cc1ccc(CN2CCCNC2=C[N+](=O)[O-])cn1
118	C(=C\c1nc2ccccc2n1-c1cccnc1)/c1ccccc1
66 to 68	CCC(CC)(CO)CS(N)(=O)=O

melting point [°C]	SMILES
148 to 156	COc1ccc(CC(=O)Nc2nc3c(ncn3C3CC(O)C(COC(c4ccccc4)(c4ccc(OC)cc4)c4ccc(OC)cc4)O3)c(=O)[nH]2)cc1 (configuration not stated)
190 to 200	CCc1c(-c2ccc(O)cc2)c2c(C(=O)N(C)CCN(C)C)cc3cc(OC)cc1n32
156 to 158	Oc1ccc(N2CCSCC2)cc1
146 to 148	Oc1ccc(-c2ccc(F)cc2F)cc1C12CC3CC(CC(C3)C1)C2
139 to 140	CNc1c(S(=O)(=O)C(F)(F)F)c(C)nn1-c1c(Cl)cc(C(F)(F)F)cc1Cl
223	O=C(O)c1ccc2c(c1)S(=O)c1ccccc1O2 (configuration not stated)
93 to 94	CC(C)(C)OC(=O)COc1coc(CN2CCCC2)cc1=O
174 to 176	CCC(CC)OC(=O)c1ccc(C(=O)NS(=O)(=O)c2ccc(CCNC(=O)c3cc(OC)ccc3Cl)cc2)cn1
177 to 180	CC(NC(Nc1cc(C(F)(F)F)cc(C(F)(F)F)c1)=C(C#N)S(=O)(=O)C(C)C)C(C)(C)C (configuration not stated)
109 to 110	Cc1cc(OCCN(C)C)c(C(C)C)cc1OC(=O)CCCC(=O)O
138 to 139	Cc1[nH]nc(Nc2ccccc2)c1C(=O)OC(C)C
127 to 129	CC1(O)OC(=O)C(c2c(F)cc(F)cc2F)=C1Cc1ccc(Cl)cc1 (configuration not stated)
145 to 146	CCCCn1c(=O)c2c(ncn2S(=O)(=O)c2cccs2)n(CCCC)c1=O
51 to 52	CSc1ccc(-c2ccccc2)c([N+](=O)[O-])c1
120 to 122	COc1ccc(COc2cc(N)c(Cl)cc2C(=O)CCCCN2CCCCC2)cc1OC
168	CCOC(=O)c1cc2sc(N=CN(C)C)c(C#N)c2s1
189 to 190	CCc1cc(Oc2ccc(S(C)(=O)=O)nc2)cc2cc(C3=NCC(CC(=O)NC)S3)[nH]c12 (configuration not stated)
98 to 100	COc1c(Cl)cc(Cl)c(OC)c1C(=O)O
191 to 193	CCC1c2cccn2-c2ccc(Br)cc2N1S(=O)(=O)c1ccc(O)c(C)c1 (configuration not stated)
130 to 135	CN(C)CCC(C(=O)O)c1cccc2ccccc12 (configuration not stated)
100 to 102	O=Cc1cccc2ccc(-c3ccccc3)nc12
182 to 183	CN1CCC(C(=O)Nc2ccc(CN(C)C3CCOCC3)cc2)=Cc2cc(-c3ccc(OC(F)(F)F)cc3)ccc21
200 to 210	CCOC(=O)c1cnc2c(OC)nc(OC)cc2c1Cl
114 to 116	O=C(C=Cc1ccccc1)Oc1ccccc1
108 to 111	CC(C(=O)N(C)C)n1cc(Cl)c(-c2ccccc2Cl)n1 (configuration not stated)
175 to 177	CC(C)c1ccccc1NC(=N)Nc1cccc2ccccc12
